The test has as its system subjects with Major Depressive Disorder. The test is described as follows: Hamilton Depression Rating Scale (HDRS) ratings over 8 weeks of open-label sertraline treatment. Format: in vivo, human.

In the case of `CN[C@H]1CC[C@@H](c2ccc(Cl)c(Cl)c2)c2ccccc21` [sertraline], the “HDRS ratings, Mean±SD” value (Week 8 of sertraline treatment, 50 to max 200 mg per day, 16 depressed subjects, Baseline 18.50±3.65, paired t=5.67, p<0.000) stood at 10.19±4.62. Moreover, the “range of changes in HDRS ratings” value (over the 8-week course of sertraline treatment, individual subjects) is reported as 27% worsening to 82% improvement. For the same compound, the “mean improvement in HDRS ratings” value (over the 8-week course of sertraline treatment, relative to baseline) is reported as 42.3±31%.

The record behind these values is patent US9732386B2, “Cell aging as a unique biomarker of major depression” (THE REGENTS OF THE UNIVERSITY OF CALIFORNIA, priority 2010, dated 2017).
